Values of other authors in PMC10644327, “A randomized, double‐blind phase 1b study evaluating the safety, tolerability, pharmacokinetics and pharmacodynamics of the NLRP3 inhibitor selnoflast in patients with moderate to severe active ulcerative colitis” (Clinical and Translational Medicine, 2023).

Set-up: method as in earlier work
Conditions: added to standard‐of‐care therapy, patients with acute severe UC; cited from earlier work

For anakinra, the Clinical outcome is listed as “did not improve the clinical outcome”.
